We go through 5 molecules from patent publication US20030203944A1, “Novel thiocarbamic acid derivatives and the pharmaceutical compositions containing the same” (priority 2000, published 2003).

SMILES strings stand for the structures.

The test system of test [1] is Male ICR mice. Briefly: Analgesic activity test: mouse writhing test by inducing with phenyl-p-quinone. Conditions: writhes vs control. In kind it is in vivo. How it is done: (3) Analgesic Activity Test: Mouse Writhing Test by Inducing with Phenyl-p-quinone
Male ICR mice (mean body weight 25 g) were maintained in a controlled lighting environment (12 h on/12 h off) for experiment. Animals received an intraperitoneal injection of 0.3 ml of the chemical irritant phenyl-p-quinone (dissolved in saline containing 5% ethanol to be a dose of 4.5 mg/kg) and 6 min later, the number of abdominal constrictions was counted in the subsequent 6 min period. Animals (10 animals/group) received 0.2 ml of test compounds solution in vehicle of ethanol/Tween 80/saline (10/10/80) intraperitoneally 30 min before the injection of phenyl-p-quinone. A reduction in the number of writhes responding to the test drug compound relative to the number responding in saline control group was considered to be indicative of an analgesic effect. Analgesic effect was calculated by % inhibition equation (% inhibition=(C−T)/C×100), wherein C and T represent the number of writhes in control and compound-treated group, respectively (Table 2).
On the technique in general: Writhing tests count abdominal constrictions after an irritant is injected.

The subject of test [2] is Male ICR mice. Briefly: Antiinflammatory activity test: TPA-induced mouse ear edema test. Conditions: dose 1 mg/ear topical; ear weight increase 24 h after TPA. In kind it is in vivo. As for the experimental part:
(4) Antiinflammatory Activity Test: TPA (12-O-tetradecanoylphorbol 13-acetate)-induced Mouse Ear Edema Test
Male ICR mice (body weight 25-30 g), 10 animals/group, were treated topically on the right ear with 30 μl of TPA (2.5 μg) solution in acetone and after 15 min, […] of acetone or test compound solution in acetone was applied topically. After six hours, an identical treatment was applied again. After twenty four hours following the treatment of TPA, the animals were sacrificed and ear tissue was dissected using 6 mm-diameter punch. Ear tissue dissected were weighed to the nearest 0.1 mg on an electrobalance. The increased weight of the tissue compared to control group was considered as an index of inflammation. The percent inhibition is defined by the following equation:
% inhibition=(C−T)/C×100, wherein C and T represent an increase of ear weight in TPA-treated and ThA+drug-treated group, respectively.

Test [3] addresses T1, cation channel connected to vanilloid receptor (Rattus norvegicus, UniProt O35433).
T1 construct: endogenous in cells
The experiment in a line: Channel activity assay (patch clamp test). In kind it is cell-based. The arrangement: key: NR: no response; +: antagonistic potency equal to capsazepine; ++: antagonistic potency 10 times higher than capsazepine. The conditions noted are these: potency relative to capsazepine. How it is done: (2) Channel Activity Assay
Antagonistic activities of test compounds were assayed based on electrical change of cation channel connected to vanilloid receptor and experiments were conducted according to reference method (Oh et al., 1996, J. Neuroscience 16, pp1659-1667) (Table 1).
In general terms: Patch clamp records ionic current or voltage across a cell membrane.

The mark [4] stands for this setting: dose 10 mg/kg intraperitoneally 30 min before phenyl-p-quinone.

T1 sequence (O35433 whole entry): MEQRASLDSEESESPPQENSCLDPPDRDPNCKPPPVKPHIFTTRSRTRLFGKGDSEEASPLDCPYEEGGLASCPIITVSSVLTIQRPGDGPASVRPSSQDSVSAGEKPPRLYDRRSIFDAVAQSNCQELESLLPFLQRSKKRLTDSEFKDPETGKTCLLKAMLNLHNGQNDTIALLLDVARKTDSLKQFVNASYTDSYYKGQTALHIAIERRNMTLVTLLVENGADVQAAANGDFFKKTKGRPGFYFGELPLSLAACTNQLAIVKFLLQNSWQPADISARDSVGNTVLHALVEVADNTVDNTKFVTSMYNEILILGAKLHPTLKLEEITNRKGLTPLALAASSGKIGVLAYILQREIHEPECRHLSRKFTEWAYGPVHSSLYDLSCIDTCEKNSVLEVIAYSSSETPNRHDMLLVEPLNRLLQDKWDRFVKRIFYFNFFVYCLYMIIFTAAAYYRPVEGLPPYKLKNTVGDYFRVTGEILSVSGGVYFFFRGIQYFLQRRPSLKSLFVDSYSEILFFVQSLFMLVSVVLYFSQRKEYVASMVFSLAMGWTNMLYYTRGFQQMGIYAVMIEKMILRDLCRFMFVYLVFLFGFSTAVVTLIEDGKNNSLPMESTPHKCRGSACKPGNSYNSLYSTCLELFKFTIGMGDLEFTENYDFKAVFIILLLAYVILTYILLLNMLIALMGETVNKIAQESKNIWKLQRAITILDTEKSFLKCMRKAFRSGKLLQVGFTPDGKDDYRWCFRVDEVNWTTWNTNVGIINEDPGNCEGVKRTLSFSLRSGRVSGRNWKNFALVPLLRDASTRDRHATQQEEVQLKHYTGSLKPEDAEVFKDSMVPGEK

Take `COc1cc(OCC2CO2)ccc1O[Si](C)(C)C(C)(C)C` (stereo not shown) [Example 60, t-butyl-(2-methoxy-4-oxiranylmethoxy-phenoxy)-dimethyl-silane]: the “Analgesic effect (% Inhibition)” value in the test with Male ICR mice [1] (dose 1 mg/kg intraperitoneally 30 min before phenyl-p-quinone) is on record as 45%. Moreover, in the test with Male ICR mice [2], the “Anti-inflammatory effect (% Inhibition)” value came to 45%.
`COc1cc(CCC(CCc2ccccc2)OC(=S)NCCc2ccccc2)ccc1O` (stereo not shown) [Example 5, Phenethyl Thiocarbamic Acid O-[3-(4-hydroxy-3-methoxyphenyl)-1-phenethylpropyl] Ester]: in test [3], the “Patch clamp Test (antagonistic activities)” value (from here on “Patch clamp Test”) is on record as “+”. Moreover, in the test on Male ICR mice [1] (setting [4]), the “Analgesic effect (% Inhibition)” value was 44%. Besides, the “Anti-inflammatory effect (% Inhibition)” value in the test with Male ICR mice [2] is reported as 33%.
As to `CCC(COc1ccc(NS(C)(=O)=O)c(C(F)(F)F)c1)OC(=S)NCCc1ccccc1` (stereo not shown) [Example 83], the “Patch clamp Test” value in test [3] was “+”.
On to `COc1cc(CCC(CCc2ccc(C(F)(F)F)cc2)OC(=S)NCCc2ccccc2)ccc1O` (stereo not shown) [Example 54], for which the “Patch clamp Test” value in test [3] is “+”. The “Analgesic effect (% Inhibition)” value in the test on Male ICR mice [1] (setting [4]) is given as 64%. For the same molecule, in the test on Male ICR mice [2], the “Anti-inflammatory effect (% Inhibition)” value turned out to be 40%.
As for `COc1cc(CCC(C)(C)OC(=S)NCCc2ccccc2)ccc1O` [Example 56], the “Patch clamp Test” value in test [3] was “+”.
